# How the values were obtained:
# [1] = test system: Rats subjected to sub-concussion (SC); experiment: Rotarod test, brain injury (sub-concussion) study (Experimental Example 3); type: in vivo; conditions: at 12 weeks (FIG. 14)
# Excerpt: Repeated sub-concussive head impacts are reported to impair psychomotor function. Rats were subjected to sham procedure, sub-concussion (SC) with control diet (AlN93M), SC with probucol, SC with aged garlic extract (AGE), or SC with HA-1 for 12 weeks.
# Both rotarod and beam walk tests assess neuromotor function. On beam walk, the higher the slips show the more impairment. On rotarod, the lower the latency indicates the more impairment.
# diabetic db/db mice = experiment: Passive avoidance test (short-term memory) in diabetic db/db mice (Experimental Example 7); type: in vivo; conditions: 14 and 28 weeks of age, compared to the control mice
# Excerpt: In this study, 4-5 week old diabetic db/db mice were put onto a diet containing probucol 0.1% (w/w) or HA-1 0.2% (w/w) for either 10 or 24 weeks, till the age of 14 or 28 weeks, respectively. Passive avoidance test was used to assess short-term memory. Subsequently, the mice were sacrificed to obtain plasma and brain tissue samples for further analyses.
# OC-1 cells = experiment: Seahorse bioenergetics experiment (oxygen consumption rate) after cisplatin; type: cell-based
# Experimental: Mitochondrial function was analysed by measuring oxygen consumption rate (OCR) using real-time Seahorse Flux Analyser XF 96 (Seahorse Bioscience, USA) with our well-established method (Kovacevic, Bozica, et al. “Novel hydrogel comprising non-ionic copolymer with various concentrations of pharmacologically active bile acids for cellular injectable gel.” Colloids and Surfaces B: Biointerfaces (2022): 113014). Briefly, the first injection was with media without glucose, with subsequent ATP synthase inhibitor oligomycin and FCCP (carbonyl cyanide-p-trifluoromethoxy phenylhydrazone) and the final injection was complex […] inhibitors Rotenone+antimycin A 77. The result was automatically generated and analysed by the wave software. The OC-1 cells were pre-treated with cisplatin at three different concentrations (20, 30 and 40 μM) for 24 or 48 hours to induce cytotoxicity prior to the seahorse bioenergetics assays.
# Caspase 3/9 protein = experiment: Caspase assay; type: cell-based; conditions: OC-1 cells under stressful, toxic conditions (FIG. 31)
# Experimental: The caspase assay was carried as per manufacturer's instructions (abcam, NSW, Australia), as described below.
# • Collagen coated cover slip • Fixing agent: 4% paraformaldehyde • Permeabilization agent 0.5% of Tween 20 or trition-X 100 diluted in PBS • Blocking: 1% BSA in PBST may also be used. • PBST: 0.1% Tween 20 in PBS • Primary abs (1:500 in PBS) • Secondary abs (1:1000 in PBS) • Hoechst (Nuclear stain)
# First day: Fixation, permeabilize, blocking and add a primary antibody to the cells, as described below:
# • Start by aspirating culture medium from each well followed by fixation of the cells with 4% Using 4% paraformaldehyde in PBS pH 7.4 for 10 min at room temperature. (Add one ml in each well). • Shake a plate for a few seconds.
# 0.5% of Tween 20 or trition-X 100 diluted in PBS. […]
# • Make coverslips ready to be mounted onto microscope slides. • Take a clean slide and dispense one drop of antifade mounting medium by slowly from the pipette into the slide. • Carefully remove a coverslip from the well and allow excess wash to drip off and place the cells face down onto the slide. • Clear fingernail polish can be used to seal the coverslip and prevent it from drying out. • Visualized slide under microscope. […]
compound,measurement,setting,value
"CC(=O)O[C@@H]1CC[C@@]2(C)[C@H](CC[C@@H]3[C@@H]2CC[C@]2(C)[C@@H]([C@H](C)CCC(=O)Oc4c(C(C)(C)C)cc(SC(C)(C)Sc5cc(C(C)(C)C)c(O)c(C(C)(C)C)c5)cc4C(C)(C)C)CC[C@@H]32)C1 [HA-1, 2,6-di-tert-butyl-4-((2-((3,5-di-tert-butyl-4-hydroxyphenyl)thio)propan-2-yl)thio)phenyl (4R)-4-[(3R,5R,8R,9S,10S,13R,14S,17R)-3-acetoxy-10,13-dimethyl-2,3,4,5,6,7,8,9,11,12,14,15,16,17-tetradecahydro-1H-cyclopenta[a]phenanthren-17-yl]pentanoate]",rotarod latency (average),[1],significantly increased the latency
same,passive avoidance latency (short-term memory),diabetic db/db mice,significantly increased the latency
same,oxygen consumption rate (OCR),"OC-1 cells; OC-1 cells after 24 hours exposure to cisplatin (20, 30 and 40 μM)",significant and profound otoprotective effects
same,oxygen consumption rate (OCR),"OC-1 cells; OC-1 cells after 48 hours exposure to cisplatin (20, 30 and 40 μM)",significantly reverse the cytotoxic effects of cisplatin
same,protection against programmed cell death (caspase-3 activation) / viable cell population,Caspase 3/9 protein,significant protection against programmed cell death
